Reference: US20210113687A1, “METHODS FOR TREATING INFLAMMATION” (NEW YORK UNIVERSITY, priority 2013, published 2021)
Blank lines part the entries; values can stand above or below the compound they belong to.

Key:
[1] = test system: mouse peritoneal macrophages; assay: Migration assay of peritoneal macrophages (pMø); format: cell-based; conditions: for inhibitory effect of netrin-1 on CCL19-induced migration: macrophages pre-incubated with agent
Protocol: Migration assays. Chemotaxis of macrophages (pMø, RAW264.7) and CaSMC was measured in 96-well Boyden chamber with a 5 μm (macrophages) or 8 μm pore size filter (CaSMC) (Neuro Probe) as previously described (Ly, et al., Proc Natl Acad Sci USA, 2005, 102: 14729-14734). Macrophage chemotaxis was also quantified using a Real-time Cell Invasion and Migration (RT-CIM)×Celligence assay system with monitoring every 5 min (Roche Applied Science). […] In some assays, cells were pretreated with netrin-1 or UNC5b blocking antibody (AF1006, R&D Systems) or Neogenin blocking antibody (Santa Cruz, sc-6537) or control goat IgG (Santa Cruz) for 1 hour prior to migration. Following cell migration for 3 or 16 hours (CaSMC and macrophages, respectively), four random high power fields from each well were counted to determine the number of cells that had migrated into the lower chamber. Migration was expressed as chemotactic index, which was calculated by dividing the number of migrating cells in the treated groups by the number of migrating cells in the lowest control well. Results of chemotaxis assays are representative of at least three independent experiments performed on triplicate samples.

BMDM [2] = assay: BMDM migration towards MCP-1 (xCelligence); format: cell-based, mouse; conditions: treatment with Unc5b-FC
Protocol: (§1) Macrophage chemotaxis was measured using the Real-Time Cell Invasion and Migration xCelligence Assay System with monitoring every 3 min (Roche Applied Science). BMDM migration towards MCP-1 (100 ng/ml; R&D Systems) was measured in the presence or absence of oxLDL (50 μg/ml) and/or recombinant rat UNC5b-Fc chimera (1006-UN; R&D Systems) to block the effects of netrin-1. In a subset of experiments, cells were pre-treated with 0.1 mmol/L CoCl2 for 1 h prior to migration. J774 macrophage migration was carried out in the presence or absence of UNC5b-Fc chimera. Results of chemotaxis assays are representative of at least three independent experiments performed on triplicate samples.

J774Hif macrophages = assay: J774 macrophage migration (xCelligence); format: cell-based, mouse; conditions: treated with Unc5b-FC, no exogenous chemokine
Protocol: as §1

BMDMs [3] = assay: Apoptotic assays of growth-factor deprived BMDM (TUNEL, active caspase-3); format: cell-based, mouse
Protocol: To induce apoptosis, BMDMs were grown in foe absence of L929 conditioned media (CM) for 3 days under normoxic or hypoxic conditions. In some assays, cells were treated with 100 μmol/L HIF-1α inhibitor or Unc5b-FC fragment or control IgG. After treatment, apoptotic cells were labeled with PE-active caspase-3 (557091, BD pharmingen) or by the TUNEL method using an in situ cell detection kit (Roche Diagnostics). Active Caspase-3, TUNEL and DAPI staining were analyzed with a Nikon Eclipse fluorescent microscope. Only TUNEL positive cells that colocalized with DAPI stained nuclei were considered apoptotic.

peritoneal macrophages = assay: Migration of palmitate-treated peritoneal macrophages to CCL19; format: cell-based, mouse; conditions: addition of Unc5b-FC
Protocol: (§2) Cell culture. Primary bone marrow derived macrophage (BMDM) was prepared by flushing the bone marrow of the tibia and femur of 6-8 week old C57/B6 mice. The cells were grown in DMEM supplemented with 15% L929-conditioned media, 10% FBS and 1% penicillin/streptomycin for 7 days. BMDM were stimulated 250 pM palmitate conjugated with BSA or BSA as a control for 24 hours, or TNFα (10 ng/ml, 410-MT-010; R&D systems), IL-6 (40 nglml, 406-ML-005; R&D systems) and IL-4 (1 Onglml, 404-ML-010; R&D systems) for 24 h. In some assays, differentiated BMDM were treated with conditioned media from 3T3-L1 adipocytes differentiated as described (Lin, et al., J Biol Chem, 2005; 280:4617-4626) and treated with 250 pM palmitate conjugated with BSA or BSA for 24 hours. In certain experiments, anti-TNFα (0.4 μg/ml, AF-410-NA, R&D systems) or anti-IL-6 (0.025 μg/ml, MAB406; R&D systems) blocking antibody or IgG control (Normal Goat IgG: AB-108-C, Rat IgG1: MAB005; R&D systems) was added to conditioned media. Peritoneal macrophages were isolated as described (van Gils, et al., Nat Immunol, 2012; 13:136-143). […]
Migration. The migration of ATM or peritoneal macrophages to CCL19 (500 ng/ml; R&D Systems) was assessed by the xCelligence Real-time Cell Invasion and Migration system (ACEA biosciences Inc) that monitored chemotaxis every 5 minutes for over 6 h. […]

Rac1 = Rac1 activation assay; format: cell-based, mouse; conditions: MCP-1 stimulation, within 5 minutes
Protocol: Rac1 activation assays Peritoneal macrophages were seeded in a 6-well plate overnight in regular growth media. The cells were stimulated with MCP-1 (10 ng/ml R&D systems) for 5 minutes with or without a pretreatment with mouse recombinant netrin-1 (250 ng/ml, R&D Systems) for 30 minutes. At the end of stimulation the cells were lysed and Rac1-GTP levels were measured using Rac1 Activation Assay (Cell Biolabs) according manufacturer's instructions.

[4] = test system: human NTNI promoter-luciferase reporter; assay: NTN1 promoter-luciferase assay (Example 4); format: cell-based; conditions: pretreating with NFkB inhibitor
Protocol: (§3) Promoter-Luciferase assays. HEK293T cells were transfected with human NTNI or Unc5H2 promoter-luciferase reporter constructs (SwitchGear Genomics) using Lipofectamine™ 2000 (11668-019, Invitrogen) After transfection, media was changed and cells were treated with palmitate or BSA for 24 hours, in the presence or absence of the NFkB inhibitor BAY 11-7082 (10 μmol/L). Luciferase activity was measured using the DUAL-Glo Luciferase Assay system (E1910, Promega).

[5] = test system: human Unc5H2 promoter-luciferase reporter; assay: Unc5H2 promoter-luciferase assay (Example 4); format: cell-based; conditions: pretreating with NFkB inhibitor
Protocol: as §3

BMDM [6] = assay: netrin-1 ELISA of BMDM supernatants; format: cell-based, mouse; conditions: blocking NFkB
Protocol: as §2, with “media.” for “media. Peritoneal macrophages were isolated as described (van Gils, et al., Nat Immunol, 2012; 13:136-143).”
ELISA assay. Insulin (90080; crystal Chem Inc), adiponectin (ab108785; Abeam), FFA (SFA-1; Zen Bio), TNFa (88-7064-76; ebiosciences) and netrin-1 (E91827Mu; USCN life science Inc) levels were measured in the serum using mouse standards according to manufacturer's guidelines. Netrin-1 in human serum was measured using a human-specific netrin-1 ELISA from USCN Life Science Inc (700176; mybiosource).

BMDMs [7] = assay: qPCR of macrophages under hypoxic stress; format: cell-based, mouse
Protocol: Primary bone marrow derived macrophage (BMDM) were prepared by flushing the bone marrow of the tibia and femur of 6-8 week old C57/B6 mice as described (The cells were grown in DMEM supplemented with 15% L929-conditioned media, 10% FBS and 1% penicillin/streptomycin for 7 days and then treated with oxLDL or subjected to hypoxic conditions. Hypoxic incubations were carried out at 37° C. in a Billups-Rothenberg modular incubator chamber at 1% O2, 5% CO2 and 94% N2 for 24 hours. J774 control (J774con) and HIF-1α overexpressing (J774Hif) macrophages (Parathath et al., Circ. Res. 2011; 109:1141-1152) were grown in 5.5 mmol/L glucose containing DMEM supplemented with 15% FBS and 1% penicillin/streptomycin.
Total RNA was isolated using TRIZOL reagent and RNA ([…]) was reverse transcribed with an iScript cDNA Synthesis kit according to the manufacturer's instructions (Bio-Rad). RT-PCR analysis was performed using iQ SYBR green Supermix (Biorad) and a Mastercycler Realplex (Eppendorf) as we described (van Gils et al., Nat Immunol, 2012; 13:136-143). The change in mRNA expression was calculated by the comparative change-in-cycle-method (DDCT) relative to GAPDH mRNA levels. The following primer sets were used;

[8] = test system: Human NTN1 promoter-luciferase reporter; assay: NTN1 promoter luciferase assay (Example 2); format: cell-based
Protocol: (§4) Human NTN1 or UNC5B promoter-luciferase reporter plasmids (Switchgear Genomics) were transfected into HEK293T using Lipofectamine™ 2000 (11668-019, Invitrogen). After transfection, media was changed and cells were treated with oxLDL (50 μg/ml) or CoCl2 (0.1 mM), or DMOG (1 mmol/1) for 24 hours, in the presence or absence (PBS control) of inhibitors of NFκB (10 μmol/L Bay11-7082) or HIF1α (100 μmol/L HIF-1α inhibitor). Luciferase activity was measured using foe DUAL-Glo Luciferase Assay system (E1910, Promega) and normalized to a constitutively expressed renilla reporter or to protein concentration.

[9] = test system: Human UNC5B promoter-luciferase reporter; assay: UNC5B promoter luciferase assay (Example 2); format: cell-based; conditions: treatment with HIF-1α inhibitor
Protocol: as §4

BMDM [10] = assay: qRT-PCR of BMDM (palmitate, cytokines, adipocyte conditioned media); format: cell-based, mouse; conditions: direct addition of cytokine
Protocol: Real-time Quantitative RT-PCR Analysis RNA (0.5-1 μg) was reverse transcribed using iScript™ cDNA Synthesis Kit (Biorad) and RT-PCR analysis was conducted using kapa SYBR green Supermix (kappa syber) and a Mastercycler Realplex (Eppendorf) the primers used are listed. Fold change in mRNA expression was calculated using the comparative cycle method (ΔΔCt).
Cell culture. Primary bone marrow derived macrophage (BMDM) was prepared by flushing the bone marrow of the tibia and femur of 6-8 week old C57/B6 mice. The cells were grown in DMEM supplemented with 15% L929-conditioned media, 10% FBS and 1% penicillin/streptomycin for 7 days. BMDM were stimulated 250 pM palmitate conjugated with BSA or BSA as a control for 24 hours, or TNFα (10 ng/ml, 410-MT-010; R&D systems), IL-6 (40 nglml, 406-ML-005; R&D systems) and IL-4 (1 Onglml, 404-ML-010; R&D systems) for 24 h. In some assays, differentiated BMDM were treated with conditioned media from 3T3-L1 adipocytes differentiated as described (Lin, et al., J Biol Chem, 2005; 280:4617-4626) and treated with 250 pM palmitate conjugated with BSA or BSA for 24 hours. In certain experiments, anti-TNFα (0.4 μg/ml, AF-410-NA, R&D systems) or anti-IL-6 (0.025 μg/ml, MAB406; R&D systems) blocking antibody or IgG control (Normal Goat IgG: AB-108-C, Rat IgG1: MAB005; R&D systems) was added to conditioned media. Peritoneal macrophages were isolated as described (van Gils, et al., Nat Immunol, 2012; 13:136-143). Mice were injected intraperitoneally with 1 ml of 3% (wt/vol) thioglycolate to elicit sterile sterile peritonitis with macrophage numbers peaking on day 4. Cells were collected by lavage and used for migration assays.
Palmitate-BSA preparation. Sodium palmitate (P9767; Sigma Aldrich) was dissolved in sterile water in to make a 100-mM solution by alternating heating and vortexing until the palmitate was dissolved. Thu occurred once the solution reached 70 C. […]

[11] = test system: human Netrin-1 promoter luciferase reporter construct; assay: Netrin-1 promoter-luciferase assay in HEK293T; format: cell-based; conditions: BAY 11-7082 20 μM pretreatment
Protocol: Netrin-1 Promoter-Luciferase MMV HEK293T were transfected with a human Netrin-1 promoter luciferase reporter construct (SwitchGear Genomics) using Lipofectamine™ 2000 (Invitrogen). After transfection, media was changed and cells were pretreated with the NFKB inhibitor BAY 11-7082 (20 μM) for 1 hour prior stimulation with 100 μg/ml oxLDL or PBS as a control for 24 hours. Luciferase activity was assessed using the Dual-Glo Luciferase Assay System (Promega) and normalized to a constitutively expressed Renilla reporter.

palmitate-induced Ntn1-promoter luciferase activity [4]: inhibited, in part
palmitate-induced Unc5b-promoter luciferase activity [5]: inhibited, in part
Compound: CC(C)(C)c1ccc(S(=O)(=O)/C=C/C#N)cc1 [BAY 11-7085]
palmitate-induced secretion of netrin-1 by BMDM (BMDM [6]): inhibited, in part

oxLDL induction of netrin-1 promoter activity [11]: inhibited
Compound: Cc1ccc(S(=O)(=O)/C=C/C#N)cc1 [BAY 11-7082]

Continued, compound first:

Compound: UNC5b-Fc: recombinant rat UNC5b-Fc chimera (cat #1006-UN, R&D Systems) to block the effects of netrin-1
inhibition of migration to CCL19 by conditioned medium from oxLDL-treated macrophages ([1]; addition of recombinant UNC5b-Fc): reversed
inhibitory effect of netrin-1 on CCL19-induced migration [1]: reversed the inhibitory effect of netrin-1
CoCl2 impairment of macrophage migration to MCP-1 (BMDM [2]): reversed this effect
migration of J774-HIF cells (J774Hif macrophages): comparable to control J774 macrophages
TUNEL and active caspase-3 staining under hypoxic conditions (BMDMs [3]; growth factor deprived macrophages, Unc5b-FC): increased TUNEL and active caspase-3 staining similar to normoxic controls
migration of palmitate-treated macrophages to CCL19 (peritoneal macrophages): restored

Compound: MCP-1: chemokine MCP-1 (R&D Systems)
levels of activated Rac1 (Rac1): approximately 3 fold

Compound: Cn1c(=O)c2nc(-c3ccccc3)[nH]c2n(C)c1=O [inhibitor of the A2B adenosine receptor]
inhibitory effect of netrin-1 on CCL19-induced migration [1]: no change

Compound: COC(=O)c1ccc(O)c(NC(=O)COc2ccc(C34CC5CC(CC(C5)C3)C4)cc2)c1 [HIF-1α inhibitor]
oxLDL-induced Unc5b mRNA in BMDM (BMDMs [7]; HIF-1α inhibitor): required HIF-1α activity
Unc5b mRNA in response to low oxygen concentration, CoCl2 or DMOG (BMDMs [7]; pre-treated with HIF-1α inhibitor): no upregulation of Unc5b
increase in Ntn1 mRNA under hypoxia, CoCl2, DMOG or oxLDL (BMDMs [7]; pretreatment with HIF-1α inhibitor): blocked
oxLDL- and DMOG-induced increase in Ntn1 promoter activity ([8]; presence or absence of HIF-1α inhibitor): dependent on HIF-1α activity
oxLDL-induced increase in Unc5b promoter activity [9]: abrogated
protection from apoptosis (TUNEL) under hypoxic conditions (BMDMs [3]; growth-factor deprived BMDM, HIF-1α inhibitor): reversed

Compound: TNFα
Ntn1 mRNA in BMDMs (BMDM [10]): increased Ntn1 mRNA

Compound: COC(=O)CNC(=O)C(=O)OC [DMOG, dimethyloxalylglycine]
Ntn1 promoter activity ([8]; HEK293 cells): potently induced
